Assay results: US9718859B2, “Glycogen synthase kinase-3 inhibitors” (Ramot at Tel-Aviv University Ltd., priority 2013, dated 2017)
“Also recorded” adds a separate entry of the source. One block for each compound: values may come before it. Square brackets hold non-standard residues; d marks the D form. Ends that are not written are not given here. Peptide text beside a SMILES is read from it. * marks the point of attachment. Myristoyl = CCCCCCCCCCCCCC(=O)*; pS = N[C@@H](COP(=O)(O)O)C(=O)O

Assays:
[1] = target: GSK-3 (Homo sapiens, UniProt P49841); conditions: Licht-Murava et al. 2011; cited from earlier work
[2] = target: T1, GSK-3β F93A mutant (Homo sapiens, UniProt P49841, F93A); experiment: In vitro kinase assay: phosphorylation of the peptide as a substrate by the GSK-3β F93A mutant; format: biochemical; conditions: FIG. 5
T1 construct: made in house, partially purified on a DE-52 minicolumn
Experimental: (§1) GSK-3β F93A mutant (in which Phe93 was replaced by alanine) was prepared as described in WO 2012/101599.
(§2) In assays conducted with GSK-3 mutant, the GSK-3β proteins (WT or mutant) were incubated with the indicated substrate in a reaction mixture (50 mM Tris-HCl, pH 7.3, 10 mM magnesium acetate, and 0.01% β-mercaptoethanol) together with 100 μM ^32P[γ-ATP] (0.5 μCi/assay) for 15 minutes. Reactions were stopped by spotting on p81 paper (Whatman) washed with phosphoric acid, and counted for radioactivity as previously described [Ilouz et al. (2006) supra]. In assays from cells overexpressing GSK-3 proteins, GSK-3 proteins were partially purified by DE-52 minicolumn and subjected to in vitro kinase assays as described. The activity of the endogenous GSK-3 that was determined in cells transfected with the pCMV4 vector was subtracted from the activity values obtained for WT and mutants.
Thus, L807 and the substrate pHSF-1 were both tested in in vitro kinase assays as described hereinabove, for the ability of GSK-3β (WT) and its F93A mutant to phosphorylate these peptides.

[3] = target: T2, GSK-3β (WT) (Homo sapiens, UniProt P49841); experiment: In vitro kinase assay: phosphorylation of the peptide as a substrate by GSK-3β (WT), 32P-γ-ATP; format: biochemical; conditions: WT GSK-3β, FIG. 3 and FIG. 5
T2 construct: made in house
Experimental: (§3) GSK-3β (WT) was incubated with pIRS-1, RREGGMSRPAS(p)VDG (SEQ ID NO:55), as an exemplary substrate, in a reaction mixture (50 mM Tris-HCl, pH 7.3, 10 mM magnesium acetate, and 0.01% β-mercaptoethanol) together with 100 μM 32P[γ-ATP] (0.5 μCi/assay) for 15 minutes. Reactions were stopped by spotting on p81 paper (Whatman), washed with phosphoric acid, and counted for radioactivity as previously described [Ilouz et al. (2006) supra].
as §2
Thus, in vitro kinase assays as described hereinabove were performed in the presence of pIRS-1 substrate or L807 and phosphorylation was determined. […]

[4] = target: T1, GSK-3β F93A mutant; experiment: In vitro kinase assay: inhibition of the GSK-3β F93A mutant, pIRS-1 as substrate; format: biochemical; conditions: FIG. 6
Experimental: as §1, §2
In vitro kinase assays conducted for evaluating the inhibition activity of L807 and pL807 of the F93A mutant were also conducted, using pIRS-1 as a substrate.

[5] = target: T1, GSK-3β F93A mutant; conditions: Licht-Murava et al. 2011; cited from earlier work
[6] = target: T2, GSK-3β (WT); experiment: In vitro kinase assay: inhibition of GSK-3β (WT), pIRS-1 as substrate; format: biochemical; conditions: FIG. 4
Experimental: Bacterially expressed Purified GSK-3β Wild-Type (WT) was prepared as previously described (Eldar-Finkelman 1996 PNAS).
as §3
The ability of the novel peptides described in Example 1 to inhibit GSK-3β was determined by in vitro kinase assays as described hereinabove. The results are presented in FIGS. 2A-B. Substrate phosphorylation obtained in reaction with no inhibitor was defined as 100% (Con), and the results presented are means of two independent experiments each performed in duplicate±SEM.

[7] = test system: Aβ loads; experiment: Congo red staining of Aβ loads in brain sections of 5XFAD mice; format: in vivo, mouse; conditions: intranasal 60 μg/dose for 120 days, FIG. 8B
Experimental: 5XFAD mice were purchased from Jackson laboratory and maintained at an animal house. The 5XFAD mice were randomly assigned to two groups (6 animals each). Treatment started at the age of 2 months, by administering, intranassally, L807-mts (60 μg) (5 μl solution in each nostril) every other day for 120 days. Saline-perfused brains of the tested mice were rapidly excised and frozen in N2. Brains were divided into the two hemispheres: the left hemisphere was taken for immunohistology and the right hemisphere for immunoblot analysis. Coronal brains sections (14 μm) were cut by cryostat at -20° C. Slices at Bregma -1.58 mm were fixed (using 4% PFA) and stained with Congo red dye (Sigma-Aldrich) or with an antigen-retrieval method with anti-Aβ 6E10 antibody (SIG-39300) and visualized by fluorescence microscopy. Quantification of Aβ depositions was done for the whole hippocampus area in a blinded fashion using Imaging Research software from the NIH in an unbiased stereological approach. Mice were scarified and coronal brain sections were stained with congo red dye and Aβ loads were visualized by fluorescence microscopy.

[8] = test system: 5XFAD mice; experiment: Contextual fear conditioning test in 5XFAD mice; format: in vivo, mouse; conditions: intranasal, 60 μg/dose every other day for 120 days, FIG. 8A
Experimental: 5XFAD mice were purchased from Jackson laboratory and maintained at an animal house. The 5XFAD mice were randomly assigned to two groups (6 animals each). Treatment started at the age of 2 months, by administering, intranassally, L807-mts (60 μg) (5 μl solution in each nostril) every other day for 120 days.
A contextual fear conditioning test (FCT) was thereafter conducted as described in Saura et al. (2005) J. Neurosci. 25(29), 6755-6764. Briefly, mice were subjected to an unconditioned electric stimulus (US footshock; 1 s/1 mA) in a training pre-session. Twenty-four hours later, FCT was measured by scoring freezing behavior (the absence of all but respiratory movement) for 180 seconds using a FreezeFrame automated scoring system (Coulbourn Instruments). All experiments were in compliance with protocols approved by the TAU animal care committee.
Mice (two-month old) were treated intranasally with L807-mts (60 μg/dose) for 120 days. At the end of the experiment mice were subjected to the contextual fear conditioning test (FCT), a behavioral test widely used to evaluate associative learning and memory (see, Saura et al. (2005) supra).

T1 sequence (P49841 whole entry F93A): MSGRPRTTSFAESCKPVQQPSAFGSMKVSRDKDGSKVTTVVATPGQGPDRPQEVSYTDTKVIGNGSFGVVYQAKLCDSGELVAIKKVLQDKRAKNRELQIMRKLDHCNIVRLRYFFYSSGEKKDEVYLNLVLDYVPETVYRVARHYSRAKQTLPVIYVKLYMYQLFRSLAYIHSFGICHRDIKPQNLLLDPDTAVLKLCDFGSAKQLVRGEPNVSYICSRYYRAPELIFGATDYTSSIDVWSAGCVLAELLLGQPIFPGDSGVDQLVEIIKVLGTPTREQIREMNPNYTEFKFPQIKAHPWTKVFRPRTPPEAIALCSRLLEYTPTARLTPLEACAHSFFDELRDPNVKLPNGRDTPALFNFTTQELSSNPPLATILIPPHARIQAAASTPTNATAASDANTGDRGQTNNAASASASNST
T2 sequence (P49841 whole entry): as the sequence (P49841 whole entry F93A) above, with A93F counted along it
GSK-3, sequence (P49841 whole entry): as the sequence (P49841 whole entry F93A) above, with A93F counted along it

Compound: C[C@H](NC(=O)[C@H](CCC(=O)O)NC(=O)[C@@H](N)CCCCN)C(=O)N1CCC[C@H]1C(=O)N1CCC[C@H]1C(=O)N[C@@H](C)C(=O)N1CCC[C@H]1C(=O)N1CCC[C@H]1C(=O)N[C@@H](CCC(N)=O)C(=O)N[C@@H](COP(=O)(O)O)C(=O)N1CCC[C@H]1C(=O)O [L803, KEAPPAPPQS(p)P] (H-KEAPPAPPQ[pS]P-OH; N-terminus and C-terminus assumed)
Interaction with F93 of GSK-3, binding mode as previously reported [1]: contacts GSK-3 residue F93

Peptide phosphorylation by F93A mutant [2]: phosphorylated
Inhibition of the F93A mutant [4]: no inhibition
Compound: C[C@H](NC(=O)[C@H](CCC(=O)O)NC(=O)[C@@H](N)CCCCN)C(=O)N1CCC[C@H]1C(=O)N1CCC[C@H]1C(=O)N[C@@H](CO)C(=O)N1CCC[C@H]1C(=O)N1CCC[C@H]1C(=O)N[C@@H](CCC(N)=O)C(=O)N[C@@H](COP(=O)(O)O)C(=O)N1CCC[C@H]1C(=O)O [L807, KEAPPSPPQS(p)P] (H-KEAPPSPPQ[pS]P-OH; N-terminus and C-terminus assumed)
Peptide phosphorylation by GSK-3β (substrate or not) [3]: is a substrate of GSK-3; also recorded: phosphorylated

Compound: RREGGMSRPAS(p)VDG (RREGGMSRPA[pS]VDG) [pIRS-1, GSK-3 substrate peptide from the insulin receptor substrate-1]
Peptide phosphorylation by F93A mutant (literature) [5]: not phosphorylated

Peptide phosphorylation by GSK-3β (substrate or not) [3]: is not a substrate of GSK-3
Inhibition of GSK-3 [6]: does not inhibit GSK-3
Compound: KEAPPS(p)PPQS(p)P (KEAPP[pS]PPQ[pS]P) [pL807, double phosphorylated L807]

Compound: CCCCCCCCCCCCCC(=O)NCC(=O)N[C@@H](CCCCN)C(=O)N[C@@H](CCC(=O)O)C(=O)N[C@@H](C)C(=O)N1CCC[C@H]1C(=O)N1CCC[C@H]1C(=O)N[C@@H](CO)C(=O)N1CCC[C@H]1C(=O)N1CCC[C@H]1C(=O)N[C@@H](CCC(N)=O)C(=O)N[C@@H](COP(=O)(O)O)C(=O)N1CCC[C@H]1C(=O)O [L807-mts, myristic acid-GKEAPPSPPQS(p)P] (Myristoyl-GKEAPPSPPQ[pS]P-OH; C-terminus assumed)
Amount and mean sizes of Aβ loads [7]: largely reduced
Freezing behavior, performance relative to wild-type (WT) mice [8]: up to 81%±14%
